Reference: ChEMBL document CHEMBL4651402, “Screening of ~5500 FDA-approved drugs and clinical candidates for anti-SARS-CoV-2 activity” (2021)

Key:
SARS-CoV-2 [1] = test: microbe, parasite or virus in culture; assay type: functional, organism-based, Chlorocebus sabaeus, Vero C1008; settings: Severe acute respiratory syndrome coronavirus 2, Vero C1008, 48 h
in vitro = settings: chlorocebus sabaeus, Vero E6 (Vero C1008) cells
SARS-CoV-2 [2] = test: microbe, parasite or virus in culture; settings: Severe acute respiratory syndrome coronavirus 2, Vero C1008, 48 h

SMILES | IC50 (SARS-CoV-2 [1]; read-out: IC50) | IC50 (SARS-CoV-2 [1]; read-out: pIC50 (converted)) | CC50 at 48 h (in vitro; CC50) | CC50 at 48 h (in vitro; pCC50) | IC50 (SARS-CoV-2 [2]) | IC50 (SARS-CoV-2 [2]; read-out: pIC50 (converted))
COc1cc(/C=C/C(=O)CC(=O)/C=C/c2ccc(O)c(OC)c2)ccc1O [CURCUMIN] | > 100 µM | > 100 µM | 14.8 µM | 14.8 µM | > 100 µM | > 100 µM
NC(=O)C(c1ccccc1)(c1ccccc1)[C@@H]1CCN(CCc2ccc3c(c2)CCO3)C1 [DARIFENACIN] | > 100 µM | > 100 µM | 56.2 µM | 56.2 µM | > 25.1 µM | > 25.1 µM
CCN(CC)CCOC1(c2ccccc2)CCN(CCNc2ccccc2)CC1 [DIAMOCAINE] | 22.4 µM | 22.4 µM | 46.8 µM | 46.8 µM | ~9.55 µM | ~9.55 µM
CCCCOc1cc(C(=O)NCCN(CC)CC)c2ccccc2n1 [DIBUCAINE] | ~29.5 µM | ~29.5 µM | ~39.6 µM | ~39.8 µM | 29.1 µM | 28.8 µM
Oc1cc2c(cc1O)[C@H]1c3ccccc3CN[C@@H]1CC2 [DIHYDREXIDINE] | > 100 µM | > 100 µM | 18.6 µM | 18.6 µM | 7.94 µM | 7.94 µM
COc1cc(C(=O)OCCCN2CCCN(CCCOC(=O)c3cc(OC)c(OC)c(OC)c3)CC2)cc(OC)c1OC [DILAZEP] | > 100 µM | > 100 µM | ~28.2 µM | ~28.2 µM | > 100 µM | > 100 µM
O=C(Nc1ccccc1)OCC(CN1CCCCC1)OC(=O)Nc1ccccc1 (centres undefined) [DIPERODON] | > 25.1 µM | > 25.1 µM | > 25.1 µM | > 25.1 µM | 15.1 µM | 15.1 µM
c1ccc(C(c2ccccc2)N2CCN(CCCC3(c4ccccc4)OCCO3)CC2)cc1 [DOTARIZINE] | 10 µM | 10 µM | 17.4 µM | 17.4 µM | > 20 µM | > 20 µM
CN(C)CC/C=C1\c2ccccc2CSc2ccccc21 [DOTHIEPIN] | > 25.1 µM | > 25.1 µM | 20 µM | 20 µM | 16.6 µM | 16.6 µM
COc1cccc2c1C(=O)c1c(O)c3c(c(O)c1C2=O)C[C@@](O)(C(=O)CO)C[C@@H]3O[C@H]1C[C@H](N)[C@H](O)[C@H](C)O1 [DOXORUBICIN] | ~33.1 µM | ~33.1 µM | 64.6 µM | 64.6 µM | 8.04 µM | 7.94 µM
NC(=O)C1CN(CCCCC(c2ccc(F)cc2)c2ccc(F)cc2)CCN1CC(=O)Nc1c(Cl)cc(N)cc1Cl (centres undefined) [DRAFLAZINE] | > 100 µM | > 100 µM | 9.66 µM | 9.55 µM | > 100 µM | > 100 µM
CCCCc1oc2ccc(NS(C)(=O)=O)cc2c1C(=O)c1ccc(OCCCN(CCCC)CCCC)cc1 [DRONEDARONE] | > 100 µM | > 100 µM | 3.85 µM | 3.8 µM | ~3.02 µM | ~3.02 µM
O=C(N[C@H]1CN2CCC1CC2)c1cc2cccc(Cl)c2s1 [ENCENICLINE] | > 100 µM | > 100 µM | 20.9 µM | 20.9 µM | > 100 µM | > 100 µM
Cc1cc(-c2ccc(/N=N/c3ccc4c(S(=O)(=O)O)cc(S(=O)(=O)O)c(N)c4c3O)c(C)c2)ccc1/N=N/c1ccc2c(S(=O)(=O)O)cc(S(=O)(=O)O)c(N)c2c1O [EVANS BLUE FREE ACID] | > 100 µM | > 100 µM | 18 µM | 17.8 µM | > 100 µM | > 100 µM
COc1ccc2cc1Oc1ccc(cc1)C[C@H]1c3cc(c(OC)cc3CCN1C)Oc1c(OC)c(OC)cc3c1[C@H](C2)N(C)CC3 [FANCHININ] | > 50.1 µM | > 50.1 µM | 5.17 µM | 5.13 µM | 3.98 µM | 3.98 µM
CC1=C(/C=C/C(C)=C/C=C/C(C)=C/C(=O)Nc2ccc(O)cc2)C(C)(C)CCC1 [FENRETINIDE] | 2.95 µM | 2.95 µM | 5.01 µM | 5.01 µM | > 100 µM | > 100 µM
CN(C)CCCn1cc(-c2ccccc2)c(-c2ccccc2)n1 [FEZOLAMINE] | > 100 µM | > 100 µM | 39.8 µM | 39.8 µM | 14.5 µM | 14.5 µM
CCOC(=O)Nc1ccc(NCc2ccc(F)cc2)nc1N [FLUPIRTINE] | > 100 µM | > 100 µM | > 100 µM | > 100 µM | > 100 µM | > 100 µM
OC(CCCN1CCc2c(c3cc(F)ccc3n2-c2ccc(F)cc2)C1)c1ccc(F)cc1 (centres undefined) [FLUTROLINE] | > 100 µM | > 100 µM | 6.92 µM | 6.92 µM | 4.68 µM | 4.68 µM
